Test results from US11952369B2 (Kadmon Corporation, LLC, priority 2022, dated 2024).
“And” between values parts separate entries of the source, which are not always exact repeats. Equal values may be shown once. Where a name gives a salt, the structure may show the parent alone. Marks after values point to notes of the source that are not given here. One block for each compound: values may come before it.

How the values were obtained:
[1] = Phase 1 study part 1: absolute bioavailability, oral 200-mg tablet plus [14C]-belumosudil IV microtracer, plasma PK; format: in vivo, human; conditions: 100 μg IV; for half-life: iv
Method: (§1) This was a single-center, nonrandomized, open-label, 2-part study in 5 healthy male subjects aged 30 to 65 years. All oral doses were administered following an overnight fast and a standard breakfast on the day of dosing.
(timed to occur at the expected maximum concentration [Cmax]). To determine absolute bioavailability, a microtracer dose was chosen as it negates the need for an IV formulation with good stability. Additionally, due to use of a very low dose, further nonclinical studies such as local tolerance and general toxicology studies were not warranted.
Blood samples for IV [^14C]-belumosudil PK analysis and total radioactivity were collected at −0.25, −0.16, −0.08, 0, 0.08, 0.16, 0.25, 0.5, 0.75, 1, 1.5, 2, 3, 4, 5, 6, 8, 10, 12, 22, 34, and 46 hours after the end of infusion (EOI). All samples were processed to plasma within 30 minutes of collection by centrifugation at 2000 g for 10 minutes at 4° C., and
Total [^14C]-belumosudil concentrations were determined by accelerator mass spectrometry (AMS). […] Selected samples were diluted with commercial plasma to ensure that concentrations would fall within the acceptable range for AMS analysis. The samples were converted to graphite through combustion to CO2 followed by reduction to graphite. The graphite targets were then analyzed by AMS (LLOQ of 0.00489, 0.00557, 0.00485, 0.00402, and 0.00372 ng equiv/mL for individual subjects). All ^14C data was background-corrected based on predose [^14C]-belumosudil concentrations.
Eluate fractions corresponding to [^14C]-belumosudil were collected before AMS analysis (LLOQ of 1.55 pg equiv/mL).
(§2) PK parameter estimates were used to calculate absolute bioavailability and metabolite-to-parent ratio.

[2] = Phase 1 study part 2: plasma and whole-blood PK after oral 200 mg [14C]-belumosudil capsule; format: in vivo, human; conditions: for F, AUCinf (bioavailability) / F, Cmax (bioavailability): oral [14C]-belumosudil 200-mg capsule vs IV [14C]-belumosudil dose of part 1; for half-life: 200 mg
Method: as §1
(§3) For the mass balance and metabolic profiling study (part 2), following at least a 7-day washout from part 1, subjects received a single oral dose of a 200 mg [^14C]-belumosudil capsule containing NMT 9.8 MBq [^14C]. This level of radioactivity was selected based on human dosimetry calculations conducted by Public Health England that determined a radioactive oral dose of NMT 9.8 MBq would be necessary to permit adequate metabolite profiling of key samples. Taking the part 1 microtracer dose into account, the total committed effective dose subjects received in the study was 3 mSv, which falls within the International Commission on Radiological Protection Guidelines for Category IIb studies. Additionally, to remain within the limit for radioactive dose approved by the UK Administration of Radioactive Substances Advisory Committee, the target-specific activity of [^14C]-belumosudil was set to 90% of the threshold radioactive dosing limit.
Whole-blood samples for total radioactivity and plasma samples for metabolite pro-filing and identification were collected before dosing and 1, 4, 8, 12, 24, 48, 72, 96, 120, 144, and 168 hours after dosing. […] Whole-blood samples for total radioactivity were collected into tripotassium ethylene-diaminetetraacetic acid tubes and stored at 2 to 8° C. pending analysis. […] (metabolite profiling samples).
(§4) Total radioactivity whole-blood, plasma, and urine samples were prepared for LSC by mixing with scintillation fluid. In addition, aliquots of whole blood were solubilized with AquiGest tissue solubilization fluid and plasma samples were mixed with 10 mM of phosphate-buffered saline. Urine and fecal samples were pooled per subject by time interval before analysis. In addition, fecal samples were combusted using an automatic sample oxidizer prior to LSC. Radioactivity in all samples was measured using an LSC with automatic external standard quench correction (2300TR, 2900TR, and 3100TR Tri-Carb, Scintillation Counters; PerkinElmer, Waltham, Massachusetts), with samples counted for 4 minutes. The LLOQ was considered to be twice the background value for samples of the same type (1.39 [urine], 23.9 [feces], 35.5 [whole blood], and 30.9 [plasma] ng equivalents [free base]/g or mL).
as §2

[3] = Phase 1 study part 2: mass balance recovery of total radioactivity in excreta; format: in vivo, human; conditions: oral 200-mg [14C]-belumosudil capsule
Method: as §3
Urine for total radioactivity and metabolite profiling and identification was collected before dosing (the first void of the day) and pooled from 0 to 6, 6 to 12, and 12 to 24 hours after dosing followed by daily (24-hour) collections until day 8/discharge. Urine samples were pooled per interval and stored at 2 to 8° C. pending analysis. Feces were collected from admission until before dosing and then daily (24-hour) collections until discharge. Fecal samples were pooled per time interval and stored at −20° C. pending analysis.
as §4

ROCK2 = biological target: T1, ROCK2 (Rattus norvegicus, UniProt Q62868); test: Inhibition of ROCK2 enzymatic activity, immunoabsorbed full length enzyme, S6 kinase substrate peptide, [γ33P]ATP; format: biochemical; conditions: for Ki: ROCK2
T1 construct: Full length rat ROCK1 and ROCK2 proteins were isolated from various tumor cell lines or tissues by immunoabsorption; endogenous in cells
Method: Full length rat ROCK1 and ROCK2 proteins were isolated from various tumor cell lines or tissues by immunoabsorption to 24-well microtiter plates pre-coated with antibodies specific for each isozyme. Reactions were initiated by the addition of S6 kinase substrate peptide, [γ33P]ATP, and study drug, and incubated at 37° C. for 20 minutes. Reactions were terminated by addition of phosphoric acid and the radioactivity was quantified using standard methods.

patients with cGVHD = conditions: cited from earlier work
Solubility = format: physicochemical; conditions: water
[4] = arithmetic mean (standard deviation), Part 1, [14C]-belumosudil
[5] = arithmetic mean (standard deviation), Part 1, total radioactivity
[6] = geometric mean (geometric CV %), Part 1, [14C]-belumosudil
[7] = geometric mean (geometric CV %), Part 1, total radioactivity
[8] = arithmetic mean (standard deviation), Part 2, [14C]-belumosudil 200-mg capsule
[9] = arithmetic mean (standard deviation), Part 2
[10] = arithmetic mean (standard deviation), Part 2, total radioactivity, 200-mg capsule
[11] = geometric mean (geometric CV %), Part 2, [14C]-belumosudil 200-mg capsule
[12] = geometric mean (geometric CV %), Part 2
[13] = geometric mean (geometric CV %), Part 2, total radioactivity, 200-mg capsule

T1 sequence (Q62868 whole entry): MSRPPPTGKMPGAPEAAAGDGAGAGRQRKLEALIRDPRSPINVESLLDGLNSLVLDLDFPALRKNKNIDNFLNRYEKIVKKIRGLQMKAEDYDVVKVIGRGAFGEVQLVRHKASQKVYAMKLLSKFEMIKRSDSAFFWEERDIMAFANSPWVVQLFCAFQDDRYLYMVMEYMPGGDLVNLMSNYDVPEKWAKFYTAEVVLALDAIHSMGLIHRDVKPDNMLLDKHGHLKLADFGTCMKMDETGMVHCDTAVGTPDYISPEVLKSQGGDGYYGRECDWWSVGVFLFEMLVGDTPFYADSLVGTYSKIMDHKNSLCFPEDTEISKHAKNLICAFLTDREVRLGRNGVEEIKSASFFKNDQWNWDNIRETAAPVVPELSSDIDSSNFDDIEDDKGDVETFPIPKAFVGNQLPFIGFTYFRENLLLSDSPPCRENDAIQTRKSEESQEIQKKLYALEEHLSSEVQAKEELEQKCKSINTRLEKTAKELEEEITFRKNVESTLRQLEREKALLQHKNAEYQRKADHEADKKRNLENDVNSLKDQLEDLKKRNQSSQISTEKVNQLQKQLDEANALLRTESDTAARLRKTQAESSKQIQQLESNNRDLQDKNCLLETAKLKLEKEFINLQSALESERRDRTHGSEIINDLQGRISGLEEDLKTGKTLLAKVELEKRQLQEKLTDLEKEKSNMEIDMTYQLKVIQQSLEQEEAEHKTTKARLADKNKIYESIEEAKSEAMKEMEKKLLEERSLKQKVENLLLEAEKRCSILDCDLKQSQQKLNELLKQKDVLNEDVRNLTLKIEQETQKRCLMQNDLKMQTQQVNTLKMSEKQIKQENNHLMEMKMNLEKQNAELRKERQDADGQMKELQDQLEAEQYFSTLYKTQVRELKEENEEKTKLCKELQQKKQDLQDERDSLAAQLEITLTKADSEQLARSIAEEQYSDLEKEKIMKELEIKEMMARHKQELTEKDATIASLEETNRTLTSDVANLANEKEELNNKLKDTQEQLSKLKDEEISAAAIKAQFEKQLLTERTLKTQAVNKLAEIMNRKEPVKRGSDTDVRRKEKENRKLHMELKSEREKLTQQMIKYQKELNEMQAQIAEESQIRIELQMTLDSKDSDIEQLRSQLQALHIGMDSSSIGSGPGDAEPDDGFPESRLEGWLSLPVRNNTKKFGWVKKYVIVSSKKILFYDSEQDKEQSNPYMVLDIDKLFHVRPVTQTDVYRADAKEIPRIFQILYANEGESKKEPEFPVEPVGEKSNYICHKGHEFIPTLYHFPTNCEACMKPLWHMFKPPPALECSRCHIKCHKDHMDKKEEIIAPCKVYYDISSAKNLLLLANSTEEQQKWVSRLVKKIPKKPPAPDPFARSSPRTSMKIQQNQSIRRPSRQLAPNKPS

Structure (SMILES): C=CC(=O)N1CCC[C@@H](n2nc(-c3ccc(Oc4ccccc4)cc3)c3c(N)ncnc32)C1 [ibrutinib]
discontinuation rate because of treatment-emergent adverse events (TEAEs) (patients with cGVHD): 43%

Structure (SMILES): O=C(O)COc1cccc(-c2nc(Nc3ccc4[nH]ncc4c3)c3ccccc3n2)c1 [KD025m2, 2-(3-(4-(1H-indazol-5-ylamino)quinazolin-2-yl)phenoxy)acetic acid]
Ki (ROCK2): 338 ± 55 nM
inhibition of ROCK2 (Ki) relative to belumosudil (ROCK2; fold lower inhibition than belumosudil): approximately 6 fold

Structure (SMILES): CC(C)NC(=O)COc1cccc(-c2nc(Nc3ccc4[nH]ncc4c3)c3ccccc3n2)c1 [Belumosudil mesylate, 2-{3-[4-(1H-indazol-5-ylamino)-2-quinazolinyl]phenoxy}-N-(propan-2-yl) acetamide methanesulfonate (1:1)]
solubility in water (Solubility): practically insoluble in water

Further lines, results first:

AUCextrap [1, 4]: 0.63 (0.46) %
AUCinf [1, 4]: 6720 (2220) ng or ng equiv × h/mL
AUClast [1, 4]: 6680 (2220) ng or ng equiv × h/mL
Clearanance [1, 4]: 264 (64.3) mL/min
Cmax [1, 4]: 4530 (830) ng or ng equiv/mL
Volume [1, 4]: 138 (59.8) L
Volume, ss [1, 4]: 54.1 (10.7) L
AUCextrap [1, 5]: 8.48 (2.84) %
Clearanance [1, 5]: 122 (29.0) mL/min
Volume [1, 5]: 194 (53.2) L
AUCextrap [1, 6]: 0.53 (66.3); %
AUCinf [1, 6]: 6480 (29.3); ng or ng equiv × h/mL
AUClast [1, 6]: 6440 (29.5); ng or ng equiv × h/mL
Cmax [1, 6]: 4480 (18.0); ng or ng equiv/mL
T1/2 (terminal half-life) [1, 6]: 5.86 (35.8); h
Volume [1, 6]: 130 (38.9); L
Volume, ss [1, 6]: 53.2 (20.6); L
AUCextrap [1, 7]: 8.09 (35.4); %
Clearanance [1, 7]: 120 (23.7); mL/min
Volume [1, 7]: 186 (35.4); L
Volume, ss [1, 7]: 98.2 (23.4) L
Tmax ([1]; male, human, plasma, 100 ug, median (min-max), Part 1 (n = 5), [14C]-belumosudil): 0.25 h
half-life ([1]; male, human, plasma, 100 ug, arithmetic mean (standard deviation), Part 1, [14C]-belumosudil, read-out: T1/2 (converted)): 6.15 h
half-life ([1]; male, human, plasma, 100 ug, geometric mean (geometric CV %), Part 1, [14C]-belumosudil, read-out: T1/2 (terminal half-life) (converted)): 5.9 h
AUCextrap [2, 8]: 3.08 (2.16) %
AUCinf [2, 8]: 8490 (2680) ng or ng equiv × h/mL
Clearanance (apparent clearance) [2, 8]: 435 (173) mL/min
F, AUCinf (bioavailability) [2, 9]: 63.8 (15.7)^b %
F, Cmax (bioavailability) [2, 9]: 63.8 (15.7)^b %
AUCextrap [2, 10]: 10.1 (2.79) %
Clearanance [2, 10]: 126 (59.7) mL/min
AUCextrap [2, 11]: 2.46 (92.9); %
AUCinf [2, 11]: 8100 (37.0); ng or ng equiv × h/mL
AUClast [2, 11]: 7850 (39.3); ng or ng equiv × h/mL
Clearanance (apparent clearance) [2, 11]: 412 (37.0); mL/min
Cmax [2, 11]: 1680 (32.1); ng or ng equiv/mL
F, AUCinf (bioavailability) [2, 12]: 62.2 (26.6)^b; %
F, Cmax (bioavailability) [2, 12]: 62.2 (26.6)^b; %
AUCextrap [2, 13]: 9.76 (31.7); %
Clearanance [2, 13]: 118 (46.1); mL/min
half-life ([2]; male, human, plasma, oral, arithmetic mean (standard deviation), Part 2, [14C]-belumosudil 200-mg capsule): 5.39 h
half-life ([2]; male, human, plasma, oral, geometric mean (geometric CV %), Part 2, [14C]-belumosudil 200-mg capsule): 5.11 h
Tmax ([2]; male, human, plasma, oral, median (min-max), Part 2 (n = 5), [14C]-belumosudil 200-mg capsule): 2 h
radioactivity recovered in excreta [3]: 88.5%
radiolabeled dose recovered in urine [3]: < 5%
total radioactivity recovered in feces [3]: 84.6% and 85%
total radioactivity recovered in feces within the first 24 hours after dosing [3]: ≈ 27.4%
total radioactivity recovered in urine within the first 24 hours after dosing [3]: 3.8%
Structure (SMILES): CC(C)NC(=O)COc1cccc(-[14c]2nc(Nc3ccc4[nH]ncc4c3)c3ccccc3n2)c1 [[^14C]-Belumosudil]

Ki (ROCK2): 45 ± 5 nM
Structure (SMILES): CC(N)C1CCC(C(=O)Nc2ccncc2)CC1 (centres unmarked) [Y-27362]
